Data from patent US20170334899A1, “AMINO-SUBSTITUTED ISOTHIAZOLES” (Bayer Pharma Aktiengesellschaft, priority 2014, published 2017).
pIC50: −log10 of the molar value.

Molecular target: T1, CDK2/CycE (Homo sapiens, UniProt P24941)
T1 construct: GST; purchased ProQinase GmbH (Freiburg, Germany); host or cells: insect cells (Sf9)
Experiment: CDK2/CycE kinase assay (TR-FRET)
Assay type: biochemical
Details: avg, read-out: CDK2 avg (IC50 [mol/l])
How it was run: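 Read-out is a TR-FRET 665/620 nm emission ratio from EDTA-stopped reactions detected with anti-pRB(pSer807/pSer811), Eu-labelled anti-mouse IgG and streptavidin-XL665, scaled between no-enzyme and uninhibited wells. Reaction: Sf9-expressed GST-CDK2/GST-CycE, 15 min compound preincubation, 10 μM ATP, 0.75 μM biotin-peptide, 25 min, 22° C., pH 8.0 Tris buffer.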

SMILES | pIC50
Cc1nsc(Nc2ccc(C#N)cn2)c1C(=O)Nc1ccc(OC2CCCNC2)nc1 (stereo not shown) [Example 37, 5-[(5-Cyanopyridin-2-yl)amino]-3-methyl-N-[6-(piperidin-3-yloxy)pyridin-3-yl]-1,2-thiazole-4-carboxamide] | ≤ 4.70
Cc1nsc(Nc2cnc(C(F)(F)F)cn2)c1C(=O)Nc1ccc(F)c(OC[C@H]2CCCN(CC(F)(F)F)C2)c1 [Example 419, N-(4-Fluoro-3-{[(3S)-1-(2,2,2-trifluoroethyl)piperidin-3-yl]methoxy}phenyl)-3-methyl-5-{[5-(trifluoromethyl)pyrazin-2-yl]amino}-1,2-thiazole-4-carboxamide] | < 4.70
Cc1nsc(Nc2cnc(C(F)(F)F)cn2)c1C(=O)Nc1ccc(CCC2CCN(CCC(F)(F)F)CC2)nc1 [Example 420, 3-Methyl-5-{[5-(trifluoromethyl)pyrazin-2-yl]amino}-N-(6-{2-[1-(3,3,3-trifluoro-propyl)piperidin-4-yl]ethyl}pyridin-3-yl)-1,2-thiazole-4-carboxamide] | < 4.70
Cc1nsc(Nc2nc3c(C(F)(F)F)cccc3s2)c1C(=O)Nc1ccc(OCCO)nc1 [Example 2, N-[6-(2-Hydroxyethoxy)pyridin-3-yl]-3-methyl-5-{[4-(trifluoromethyl)-1,3-benzo-thiazol-2-yl]amino}-1,2-thiazole-4-carboxamide] | ≤ 4.70
Cc1nsc(Nc2cnc(C(F)(F)F)cn2)c1C(=O)Nc1ccc(O[C@@H]2CN(CC(F)(F)F)C[C@@H]2F)nc1 [Example 410, N-(6-{[(3R,4S)-4-Fluoro-1-(2,2,2-trifluoroethyl)pyrrolidin-3-yl]oxy}pyridin-3-yl)-3-methyl-5-{[5-(trifluoromethyl)pyrazin-2-yl]amino}-1,2-thiazole-4-carboxamide] | < 4.70
Cc1nsc(Nc2cnc3ccccc3n2)c1C(=O)Nc1cccc(C(=O)N[C@H](C(=O)OC(C)(C)C)[C@@H](C)OC(C)(C)C)c1 [Example 57, tert-Butyl O-tert-butyl-N-[3-({[3-methyl-5-(quinoxalin-2-ylamino)-1,2-thiazol-4 yl]carbonyl}amino)-benzoyl]threoninate] | ≤ 4.70
Cc1nsc(Nc2cnc(C(F)(F)F)cn2)c1C(=O)Nc1ccc(F)c(OC[C@H]2CCCN(CC(F)F)C2)c1 [Example 400, N-(3-{[(3S)-1-(2,2-difluoroethyl)piperidin-3-yl]methoxy}-4-fluorophenyl)-3-methyl-5-{[5-(trifluoromethyl)pyrazin-2-yl]amino}-1,2-thiazole-4-carboxamide] | < 4.70
Cc1nsc(Nc2cnc(C(F)(F)F)cn2)c1C(=O)Nc1ccc(O[C@@H]2CN(CCC(F)(F)F)C[C@@H]2F)nc1 [Example 409, N-(6-{[(3R,4S)-4-Fluoro-1-(3,3,3-trifluoropropyl)pyrrolidin-3-yl]oxy}pyridin-3-yl)-3-methyl-5-{[5-(trifluoromethyl)pyrazin-2-yl]amino}-1,2-thiazole-4-carboxamide] | < 4.70
Cc1nsc(Nc2cnc(C(F)(F)F)cn2)c1C(=O)Nc1ccc(F)c(OC[C@H]2CCCN(CCC(F)(F)F)C2)c1 [Example 418, N-(4-Fluoro-3-{[(3S)-1-(3,3,3-trifluoropropyl)piperidin-3-yl]methoxy}phenyl)-3-methyl-5-{[5-(trifluoromethyl)pyrazin-2-yl]amino}-1,2-thiazole-4-carboxamide] | < 4.70
Cc1nsc(Nc2cnc(C(F)(F)F)cn2)c1C(=O)Nc1ccc(F)c(O[C@@H]2CCN(CC(F)(F)F)C2)c1 [Example 413, N-(4-Fluoro-3-{[(3R)-1-(2,2,2-trifluoroethyl)pyrrolidin-3-yl]oxy}phenyl)-3-methyl-5-{[5-(trifluoromethyl)pyrazin-2-yl]amino}-1,2-thiazole-4-carboxamide] | < 4.70
Cc1nsc(Nc2cnc(C(F)(F)F)cn2)c1C(=O)Nc1ccc(OCC2CCN(CCC(F)(F)F)CC2(F)F)nc1 (stereo not shown) [Example 402, N-(6-{[3,3-difluoro-1-(3,3,3-trifluoropropyl)piperidin-4-yl]methoxy}pyridin-3-yl)-3-methyl-5-{[5-(trifluoromethyl)pyrazin-2-yl]amino}-1,2-thiazole-4-carboxamide] | < 4.70
Cc1nsc(Nc2cnc(C(F)(F)F)cn2)c1C(=O)Nc1ccc(O[C@@H]2CN(CC(F)F)C[C@@H]2F)nc1 [Example 411, N-(6-{[(3R,4S)-1-(2,2-Difluoroethyl)-4-fluoropyrrolidin-3-yl]oxy}pyridin-3-yl)-3-methyl-5-{[5-(trifluoromethyl)pyrazin-2-yl]amino}-1,2-thiazole-4-carboxamide] | < 4.70
Cc1nsc(Nc2cnc(C(F)(F)F)cn2)c1C(=O)Nc1ccc(F)c(OCCCNC(=O)C(F)(F)F)c1 [Example 427, N-(4-Fluoro-3-{3-[(trifluoroacetyl)amino]propoxy}phenyl)-3-methyl-5-{[5-(trifluoro-methyl)pyrazin-2-yl]amino}-1,2-thiazole-4-carboxamide] | ≤ 4.70
CCCN1C[C@H](F)[C@H](Oc2ccc(NC(=O)c3c(C)nsc3Nc3cnc(C(F)(F)F)cn3)cn2)C1 [Example 408, N-(6-{[(3R,4S)-4-Fluoro-1-propylpyrrolidin-3-yl]oxy}pyridin-3-yl)-3-methyl-5-{[5-(trifluoromethyl)pyrazin-2-yl]amino}-1,2-thiazole-4-carboxamide] | < 4.70
Cc1nsc(Nc2cnccn2)c1C(=O)Nc1ccc(OCCCN)nc1 [Example 48, N-[6-(3-Aminopropoxy)pyridin-3-yl]-3-methyl-5-(pyrazin-2-ylamino)-1,2-thiazole-4-carboxamide] | ≤ 4.70
Cc1nsc(Nc2ccc(C#N)cn2)c1C(=O)Nc1ccc(OCCCNC(=O)OC(C)(C)C)nc1 [Example 46, tert-Butyl [3-({5-[({5-[(5-cyanopyridin-2-yl)amino]-3-methyl-1,2-thiazol-4-yl}-carbonyl)amino]pyridin-2-yl}oxy)propyl]carbamate] | ≤ 4.70
Cc1nsc(Nc2cnc(C(F)(F)F)cn2)c1C(=O)Nc1ccc(F)c(O[C@H]2CCN(CC(F)F)C2)c1 [Example 417, N-(3-{[(3S)-1-(2,2-Difluoroethyl)pyrrolidin-3-yl]oxy}-4-fluorophenyl)-3-methyl-5-{[5-(trifluoromethyl)pyrazin-2-yl]amino}-1,2-thiazole-4-carboxamide] | < 4.70
Cc1nsc(Nc2cc(C#N)ccn2)c1C(=O)Nc1ccc(OCCCNCC(F)F)nc1 [Example 45, 5-[(4-Cyanopyridin-2-yl)amino]-N-(6-{3-[(2,2-difluoroethyl)amino]propoxy}pyridin-3-yl)-3-methyl-1,2-thiazole-4-carboxamide] | ≤ 4.70
Cc1nsc(Nc2cnc(C(F)(F)F)cn2)c1C(=O)Nc1ccc(OCC2CCN(CC(F)F)CC2(F)F)nc1 (stereo not shown) [Example 401, N-(6-{[1-(2,2-difluoroethyl)-3,3-difluoropiperidin-4-yl]methoxy}pyridin-3-yl)-3-methyl-5-{[5-(trifluoromethyl)pyrazin-2-yl]amino}-1,2-thiazole-4-carboxamide] | < 4.70

Further lines, results first:

pIC50 | SMILES
< 4.70 | Cc1nsc(Nc2cnc(C(F)(F)F)cn2)c1C(=O)Nc1ccc(OC2CCNCC2)c(F)c1 [Example 431, N-[3-Fluoro-4-(piperidin-4-yloxy)phenyl]-3-methyl-5-{[5-(trifluoromethyl)pyrazin-2-yl]amino}-1,2-thiazole-4-carboxamide]
< 4.70 | CC(=O)Nc1ccc(NC(=O)c2c(C)nsc2Nc2ccc(C#N)cn2)cn1 [Example 435, N-(6-Acetamidopyridin-3-yl)-5-[(5-cyanopyridin-2-yl)amino]-3-methyl-1,2-thiazole-4-carboxamide]
< 4.70 | Cc1nsc(Nc2cnc(C(F)(F)F)cn2)c1C(=O)Nc1ccc(OC[C@H]2CCN(CC(F)(F)F)C2)nc1 [Example 404, 3-Methyl-N-(6-{[(3S)-1-(2,2,2-trifluoroethyl)pyrrolidin-3-yl]methoxy}pyridin-3-yl)-5-{[5-(trifluoromethyl)pyrazin-2-yl]amino}-1,2-thiazole-4-carboxamide]
< 4.70 | Cc1nsc(Nc2cnc(C(F)(F)F)cn2)c1C(=O)Nc1ccc(OCCN(C)C(=O)OC(C)(C)C)nc1 [Example 429, tert-Butyl methyl{2-[(5-{[(3-methyl-5-{[5-(trifluoromethyl)pyrazin-2-yl]amino}-1,2-thiazol-4-yl)carbonyl]amino}pyridin-2-yl)oxy]ethyl}carbannate]
≤ 4.70 | Cc1nsc(Nc2cc(C#N)ccn2)c1C(=O)Nc1ccc(OC2CCCNC2)nc1 (stereo not shown) [Example 35, 5-[(4-Cyanopyridin-2-yl)amino]-3-methyl-N-[6-(piperidin-3-yloxy)pyridin-3-yl]-1,2-thiazole-4-carboxamide]
≤ 4.70 | Cc1nsc(Nc2cnc3ccccc3n2)c1C(=O)Nc1cccc(C(=O)N2CCN(C(=O)OC(C)(C)C)CC2)c1 [Example 55, tert-Butyl 4-[3-({[3-methyl-5-(quinoxalin-2-ylamino)-1,2-thiazol-4-yl]carbonyl}amino)-benzoyl]piperazine-1-carboxylate]
≤ 4.70 | Cc1nsc(Nc2cc(C#N)ccn2)c1C(=O)Nc1ccc(OCCCNC(=O)OC(C)(C)C)nc1 [Example 43, tert-Butyl [3-({5-[({5-[(4-cyanopyridin-2-yl)amino]-3-methyl-1,2-thiazol-4-yl}-carbonyl)amino]pyridin-2-yl}oxy)propyl]carbamate]
≤ 4.70 | Cc1nsc(Nc2cnc3ccccc3n2)c1C(=O)Nc1ccc(OCCCNC(=O)OC(C)(C)C)nc1 [Example 42, tert-Butyl (3-{[5-({[3-methyl-5-(quinoxalin-2-ylamino)-1,2-thiazol-4-yl]carbonyl}-amino)pyridin-2-yl]oxy}propyl)carbamate]
< 4.70 | Cc1nsc(Nc2cnc(C(F)(F)F)cn2)c1C(=O)Nc1ccc(F)c(O[C@H]2CCN(CCC(F)(F)F)C2)c1 [Example 415, N-(4-Fluoro-3-{[(3S)-1-(3,3,3-trifluoropropyl)pyrrolidin-3-yl]oxy}phenyl)-3-methyl-5-{[5-(trifluoromethyl)pyrazin-2-yl]amino}-1,2-thiazole-4-carboxamide]
